The values below come from ChEMBL document CHEMBL1208703, “Structure-activity relationships and in vivo activity of (1H-pyrazol-4-yl)acetamide antagonists of the P2X(7) receptor” (Bioorg Med Chem Lett, 2010).

Active and inactive are the calls of the source. The calls are words filed in the database; no cut-off is given here.

Data set [1] deals with T1, P2X purinoceptor 7 (Homo sapiens, UniProt Q99572).
T1 sequence (Q99572 whole entry): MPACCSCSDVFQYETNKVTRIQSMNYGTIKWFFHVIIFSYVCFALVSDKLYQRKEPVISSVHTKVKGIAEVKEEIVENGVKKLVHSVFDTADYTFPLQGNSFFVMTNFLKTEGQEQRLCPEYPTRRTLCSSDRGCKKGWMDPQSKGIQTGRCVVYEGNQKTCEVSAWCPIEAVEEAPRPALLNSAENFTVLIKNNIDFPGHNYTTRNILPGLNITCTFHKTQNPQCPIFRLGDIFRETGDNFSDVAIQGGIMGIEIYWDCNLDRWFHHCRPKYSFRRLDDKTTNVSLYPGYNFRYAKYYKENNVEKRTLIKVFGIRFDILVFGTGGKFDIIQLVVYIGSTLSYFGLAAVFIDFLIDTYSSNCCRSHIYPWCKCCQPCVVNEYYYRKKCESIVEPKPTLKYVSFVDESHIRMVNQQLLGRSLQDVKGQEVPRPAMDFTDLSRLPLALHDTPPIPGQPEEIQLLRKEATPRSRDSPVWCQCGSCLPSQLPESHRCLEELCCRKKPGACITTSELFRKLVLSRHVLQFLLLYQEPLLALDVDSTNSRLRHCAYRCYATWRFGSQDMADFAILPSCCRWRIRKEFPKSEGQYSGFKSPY
Kind of data set: Antagonist activity at human P2X7 receptor ethidium bromide release assay. The format is functional.

For data set [2], the system named is Rattus norvegicus. Kind of data set: Reversal of complete Freund's adjuvant-induced hypersensitivity in rat chronic knee joint pain model at 5-50 mg/kg, po administered 13 days after complete Freund's adjuvant challenge bid for 4 days measured on day 14. Type of data set: functional, organism-based.
Data set [3] in a line: Excretion half life in rat at 1 mg/kg, iv. Type of data set: ADME, organism-based. Details: dose 1 mg/kg, route intravenous. To be noted: in vivo, read-out: beta t1/2 (converted).
In data set [4] the test system is Rattus norvegicus. As to the kind of experiment: Antihyperalgesic activity against complete Freund's adjuvant-induced hypersensitivity in po dosed rat inflammatory pain model after 1.5 hrs. Type of data set: functional.
For data set [5], the system named is Rattus norvegicus. As to the kind of experiment: Reversal of complete Freund's adjuvant-induced hypersensitivity in rat chronic knee joint pain model at 5-50 mg/kg, po administered 13 days after complete Freund's adjuvant challenge bid for 4 days measured on day 15. Type of data set: functional, organism-based.
Data set [6] in a line: Blood clearance in rat at 1 mg/kg, iv. Type of data set: ADME, organism-based. Details: dose 1 mg/kg, route intravenous. To be noted: whole blood.
For the next data set, the system named is Blood. Kind of data set: Drug level in rat blood at 10 mg/kg, po. Type of data set: ADME, organism-based. Details: dose 10 mg/kg, route oral. To be noted: in vivo, read-out: Drug uptake.
The subject of data set [7] is Rattus norvegicus. As to the kind of experiment: Antihyperalgesic activity against complete Freund's adjuvant-induced hypersensitivity in rat inflammatory pain model at 10 mg/kg, po after 1.5 hrs. Details: dose 10 mg/kg. The format is functional, organism-based.
The next data set concerns Brain. As to the kind of experiment: Drug level in rat brain at 10 mg/kg, po. Details: dose 10 mg/kg, route oral. The format is ADME, organism-based. The settings on record: in vivo, read-out: Drug uptake.
In data set [8] the target is T2, P2X purinoceptor 7 (Rattus norvegicus, UniProt Q64663).
T2 sequence (Q64663 whole entry): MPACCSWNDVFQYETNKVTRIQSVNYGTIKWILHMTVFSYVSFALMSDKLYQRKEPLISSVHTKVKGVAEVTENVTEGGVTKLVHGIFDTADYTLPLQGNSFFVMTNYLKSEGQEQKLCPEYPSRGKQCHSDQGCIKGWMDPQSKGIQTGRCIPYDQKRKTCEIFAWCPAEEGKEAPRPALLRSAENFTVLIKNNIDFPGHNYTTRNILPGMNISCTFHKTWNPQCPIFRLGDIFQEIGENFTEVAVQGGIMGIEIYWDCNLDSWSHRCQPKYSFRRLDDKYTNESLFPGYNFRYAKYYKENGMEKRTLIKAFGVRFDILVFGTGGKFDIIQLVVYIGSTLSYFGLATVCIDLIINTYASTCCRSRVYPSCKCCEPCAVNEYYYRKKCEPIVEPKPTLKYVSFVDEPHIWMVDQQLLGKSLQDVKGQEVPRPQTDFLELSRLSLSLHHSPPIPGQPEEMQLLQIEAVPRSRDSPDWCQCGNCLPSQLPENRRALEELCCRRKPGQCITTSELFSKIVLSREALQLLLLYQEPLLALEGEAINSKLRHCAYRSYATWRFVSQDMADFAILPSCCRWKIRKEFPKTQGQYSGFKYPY
As to the kind of experiment: Antagonist activity at rat P2X7 receptor ethidium bromide release assay. The format is functional.

Data set [9] is described as follows: Oral bioavailability in rat at 3 mg/kg. To be noted: in vivo, read-out: Activity. The format is ADME, organism-based.
Data set [10] is described as follows: Volume of distribution at steady state in rat at 1 mg/kg, iv. Details: dose 1 mg/kg, route intravenous. The format is ADME, organism-based. To be noted: in vivo, read-out: Vdss.

Usually IC50 stands for the midpoint of a concentration-inhibition curve. Low values mean inhibition by little substance, high ones a need for much substance. As a reminder, the ED50 is the dose that gives a 50% effect, or the effect in half of the subjects. By clearance is commonly meant the rate of elimination divided by the concentration. Read a low clearance as inefficient removal.

Consider `Cc1noc(C)c1CC(=O)NCc1cccc(C(F)(F)F)c1Cl`, for which, on P2X purinoceptor 7 [1], the IC50 was 0.00251 µM.
On the same count and under the same terms, next, `Cc1n[nH]c(C)c1CC(=O)NCc1ccc(F)cc1F`: 0.158 µM; `Cc1cc(CCC(=O)NCc2ccc(F)cc2Cl)n(C)n1`: 0.316 µM; `Cc1[nH]nc(CC(C)C)c1CCC(=O)NCc1ccc(F)cc1Cl`: 0.1 µM.
Still for that read-out and setting: next, `Cn1ncc(F)c1CC(=O)NCc1cccc(C(F)(F)F)c1Cl`: 0.01 µM; `Cc1cnn(C)c1CC(=O)NCc1cccc(C(F)(F)F)c1Cl`: 0.00316 µM; `Cc1noc(C)c1CCC(=O)NCc1ccc(F)cc1Cl`: 0.0631 µM.
Still for that read-out and setting: next, `Cc1n[nH]c(C)c1CC(=O)NCc1ccccc1Cl`: 0.251 µM; `Cc1noc(C)c1CC(=O)NCc1ccc(Cl)cc1Cl`: 0.0158 µM.
At P2X purinoceptor 7 [1], `Cc1cnn(C)c1CCC(=O)NCc1ccc(F)cc1Cl` gave an IC50 of 0.158 µM.
Still for that read-out and setting: under `CCc1n[nH]c(CC)c1CCC(=O)NCc1ccc(F)cc1Cl` stands 0.01 µM.
For `Cc1n[nH]c(C)c1CC(=O)NCc1ccc(Cl)cc1Cl`, the result in the data set on Rattus norvegicus [2], in the data set on Rattus norvegicus [5] and in the data set on Rattus norvegicus [7] was Active. Also, the half-life in data set [3] was 1.7 h. Further, in the data set with Rattus norvegicus [4], the ED50 was determined as 2.5 mg/kg. The same compound gave a clearance in data set [6] of 9 mL/min/kg. Also, the concentration with Blood came out at 20.9 µM; with Brain it was 4.9 µM. The IC50 against P2X purinoceptor 7 [1] was 0.00794 µM; against P2X purinoceptor 7 [8], 0.0794 µM. In data set [9], the bioavailability amounted to 100%. In data set [10], the Vd is 1 L/kg.
Compound `Cc1[nH]nc(C(C)(C)C)c1CCC(=O)NCc1ccc(F)cc1Cl` had an IC50 at P2X purinoceptor 7 [1] of 0.158 µM. That is a sub-micromolar value.
Same read-out and setting: under `Cc1[nH]nc(-c2ccccc2)c1CCC(=O)NCc1ccc(F)cc1Cl` stands greater than 1 µM; under `Cc1n[nH]c(C)c1CC(=O)NCc1cccc(Cl)c1`, 0.158 µM; under `Cc1cn[nH]c1CCC(=O)NCc1ccc(F)cc1Cl`, 0.398 µM.
On the same count and under the same terms, next, `Cc1n[nH]c(C)c1CC(=O)NCc1ccc(Cl)c(C(F)(F)F)c1`: 0.0631 µM.
Still for that read-out and setting: under `Cc1n[nH]c(C)c1CC(=O)NCc1ccc(F)cc1C(F)(F)F` stands 0.0398 µM; under `Cc1cnn(C)c1CC(=O)NCc1ccc(Cl)cc1Cl`, 0.01 µM.
On P2X purinoceptor 7 [1], `Cc1n[nH]c(C)c1CC(=O)NCc1cccc(C(F)(F)F)c1Cl` gave an IC50 of 0.00251 µM.
Same read-out and setting: under `Cc1[nH]nc(C(F)(F)F)c1CCC(=O)NCc1ccc(F)cc1Cl` stands 0.0126 µM.
Still for that read-out and setting: next, `Cc1n[nH]c(C)c1CC(=O)NCc1ccc(Cl)cc1`: 0.631 µM; `CC(C)c1n[nH]c(C(C)C)c1CCC(=O)NCc1ccc(F)cc1Cl`: 0.126 µM.
